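All cell lines were grown in 96-well plates and treated with compound for 48 hours. At the GI50, growth is halved.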 Calls of active or inactive are those of the source. Rule as the data show it: active = GI50 up to about 1.1 µM and inactive = higher.
Assays:
Assay in all cases: NCI-60 cell line screen, 48 h
[1] = test system: RPMI-8226
[2] = test system: CCRF-CEM
[3] = test system: EKVX
[4] = test system: Malme-3M
[5] = test system: SN12C
[6] = test system: UACC-257
[7] = test system: K562
[8] = test system: NCI-H460
[9] = test system: A549
[10] = test system: NCI-H522
[11] = test system: CAKI-1
[12] = test system: SNB-75
[13] = test system: OVCAR-8
[14] = test system: HOP-62
[15] = test system: KM12
[16] = test system: SW-620
[17] = test system: HCT-116
[18] = test system: RXF 393
[19] = test system: IGROV-1
[20] = test system: MCF7

SMILES | GI50 [1] | GI50 [2] | GI50 [3] | GI50 [4] | GI50 [5] | GI50 [6] | GI50 [7] | GI50 [8] | GI50 [9] | GI50 [10] | GI50 [11] | GI50 [12] | GI50 [13] | GI50 [14] | GI50 [15] | GI50 [16] | GI50 [17] | GI50 [18] | GI50 [19] | GI50 [20]
C=C1CC[C@@H](Br)C(C)(C)[C@]12CCC(C)(O)C(Cl)C2 (stereo partly specified) | 18.8 µM (inactive) | 24.2 µM (inactive) | 19.1 µM (inactive) | 30.3 µM (inactive) | 16.4 µM (inactive) | 17.9 µM (inactive) | 22.4 µM (inactive) | 17 µM (inactive) | 20 µM (inactive) | 16.6 µM (inactive) | 15.8 µM (inactive) | 31 µM (inactive) | 18.7 µM (inactive) | 23.3 µM (inactive) | 18.2 µM (inactive) | 14.2 µM (inactive) | 18.1 µM (inactive) | 17.5 µM (inactive) | 23.1 µM (inactive) | –
CC(=O)/N=C1\N/C(=C/c2cc([N+](=O)[O-])ccc2O)CN1C | – | – | > 100 µM (inactive) | – | > 100 µM (inactive) | > 100 µM (inactive) | – | > 100 µM (inactive) | > 100 µM (inactive) | – | > 100 µM (inactive) | > 100 µM (inactive) | > 100 µM (inactive) | > 100 µM (inactive) | > 100 µM (inactive) | > 100 µM (inactive) | > 100 µM (inactive) | – | > 100 µM (inactive) | > 100 µM (inactive)
N#Cc1c(Cl)cc(Cl)n2c1nc1ccccc12 | 4.27 µM (inactive) | 2.49 µM (inactive) | 23.1 µM (inactive) | 2.76 µM (inactive) | 15.3 µM (inactive) | 10.3 µM (inactive) | 2.61 µM (inactive) | 8 µM (inactive) | 17.3 µM (inactive) | 2.29 µM (inactive) | 3.43 µM (inactive) | 14 µM (inactive) | 15.3 µM (inactive) | 22.9 µM (inactive) | 18.3 µM (inactive) | 3.15 µM (inactive) | 4.74 µM (inactive) | 13.2 µM (inactive) | 8.05 µM (inactive) | 4.66 µM (inactive)
CC(=O)O[C@H]1CC[C@H]2[C@@H]3CCC(C(C)=O)[C@H](C(=O)O)[C@H]3CC[C@]12C (stereo partly specified) | > 100 µM (inactive) | > 100 µM (inactive) | > 100 µM (inactive) | > 100 µM (inactive) | – | > 100 µM (inactive) | > 100 µM (inactive) | > 100 µM (inactive) | > 100 µM (inactive) | > 100 µM (inactive) | > 100 µM (inactive) | – | > 100 µM (inactive) | > 100 µM (inactive) | > 100 µM (inactive) | > 100 µM (inactive) | – | > 100 µM (inactive) | > 100 µM (inactive) | > 100 µM (inactive)
O=c1oc2ccccc2n1P(=O)(Oc1ccc(Cl)cc1)n1c(=O)oc2ccccc21 | – | 18.5 µM (inactive) | > 100 µM (inactive) | > 100 µM (inactive) | > 100 µM (inactive) | > 100 µM (inactive) | 42.2 µM (inactive) | – | > 100 µM (inactive) | > 100 µM (inactive) | > 100 µM (inactive) | > 100 µM (inactive) | > 100 µM (inactive) | > 100 µM (inactive) | 85.5 µM (inactive) | > 100 µM (inactive) | > 100 µM (inactive) | > 100 µM (inactive) | > 100 µM (inactive) | –
CC1=C(SCCO)C(=O)c2ccccc2C1=O | 2.55 µM (inactive) | 1.82 µM (inactive) | 8.41 µM (inactive) | 14.2 µM (inactive) | 15.6 µM (inactive) | 13 µM (inactive) | 3.18 µM (inactive) | 13.2 µM (inactive) | 15.9 µM (inactive) | 3.72 µM (inactive) | 14.9 µM (inactive) | 16.5 µM (inactive) | 12.4 µM (inactive) | 15.9 µM (inactive) | 13.6 µM (inactive) | 12.2 µM (inactive) | 4.76 µM (inactive) | 13.4 µM (inactive) | 14.2 µM (inactive) | 3.02 µM (inactive)
N#C/C(=C\c1ccc(Cl)cc1)c1nc2ccccc2c(=O)[nH]1 | > 100 µM (inactive) | > 100 µM (inactive) | > 100 µM (inactive) | > 100 µM (inactive) | > 100 µM (inactive) | > 100 µM (inactive) | > 100 µM (inactive) | > 100 µM (inactive) | > 100 µM (inactive) | 37.4 µM (inactive) | > 100 µM (inactive) | 17.1 µM (inactive) | > 100 µM (inactive) | 33 µM (inactive) | > 100 µM (inactive) | > 100 µM (inactive) | > 100 µM (inactive) | 81.5 µM (inactive) | > 100 µM (inactive) | > 100 µM (inactive)
CCOc1ncn(-c2ccc(NC(=S)Nc3cccc(O)c3)cc2)n1 | > 100 µM (inactive) | > 100 µM (inactive) | > 100 µM (inactive) | – | > 100 µM (inactive) | > 100 µM (inactive) | > 100 µM (inactive) | > 100 µM (inactive) | > 100 µM (inactive) | > 100 µM (inactive) | – | 40.4 µM (inactive) | > 100 µM (inactive) | > 100 µM (inactive) | > 100 µM (inactive) | > 100 µM (inactive) | > 100 µM (inactive) | – | > 100 µM (inactive) | > 100 µM (inactive)
CC12CCC(=O)N1c1cnccc1N2 (stereo unspecified) | > 100 µM (inactive) | > 100 µM (inactive) | > 100 µM (inactive) | > 100 µM (inactive) | > 100 µM (inactive) | > 100 µM (inactive) | > 100 µM (inactive) | > 100 µM (inactive) | > 100 µM (inactive) | > 100 µM (inactive) | > 100 µM (inactive) | > 100 µM (inactive) | > 100 µM (inactive) | > 100 µM (inactive) | > 100 µM (inactive) | > 100 µM (inactive) | > 100 µM (inactive) | – | > 100 µM (inactive) | –
O=C1C=CC=C/C1=C1\N=C(c2ccccc2OCC(=O)c2ccccc2)SS1 | > 100 µM (inactive) | > 100 µM (inactive) | > 100 µM (inactive) | > 100 µM (inactive) | > 100 µM (inactive) | > 100 µM (inactive) | > 100 µM (inactive) | > 100 µM (inactive) | > 100 µM (inactive) | – | > 100 µM (inactive) | 19.6 µM (inactive) | 73.5 µM (inactive) | 39.4 µM (inactive) | > 100 µM (inactive) | > 100 µM (inactive) | > 100 µM (inactive) | > 100 µM (inactive) | > 100 µM (inactive) | > 100 µM (inactive)
Nc1c(S(=O)(=O)O)cc(S(=O)(=O)O)c2ccc(/N=N/c3ccc(/C=C/c4ccc(/N=N/c5ccc6c(S(=O)(=O)O)cc(S(=O)(=O)O)c(N)c6c5O)cc4S(=O)(=O)O)c(S(=O)(=O)O)c3)c(O)c12 | > 100 µM (inactive) | > 100 µM (inactive) | > 100 µM (inactive) | > 100 µM (inactive) | > 100 µM (inactive) | > 100 µM (inactive) | > 100 µM (inactive) | > 92.7 µM (inactive) | 75 µM (inactive) | 54.1 µM (inactive) | – | 56.9 µM (inactive) | > 100 µM (inactive) | > 100 µM (inactive) | > 100 µM (inactive) | > 100 µM (inactive) | > 100 µM (inactive) | > 85.1 µM (inactive) | 90.2 µM (inactive) | > 100 µM (inactive)
Clc1cc(N/N=C(\c2ccccc2)c2ccccn2)ncn1 | 0.0438 µM (active) | < 0.01 µM (active) | 0.0215 µM (active) | < 0.01 µM (active) | – | 0.0274 µM (active) | 0.0644 µM (active) | 0.0262 µM (active) | 0.55 µM (active) | < 0.01 µM (active) | < 0.01 µM (active) | 20.7 µM (inactive) | < 0.01 µM (active) | 0.256 µM (active) | 1.22 µM (inactive) | 0.0238 µM (active) | 0.0277 µM (active) | 5.08 µM (inactive) | 0.0308 µM (active) | < 0.01 µM (active)
CCCCCCCCCCCCCCCc1nnc(S)[nH]1 | 79.3 µM (inactive) | 51.3 µM (inactive) | > 100 µM (inactive) | > 100 µM (inactive) | > 100 µM (inactive) | 88.7 µM (inactive) | 52.6 µM (inactive) | > 100 µM (inactive) | – | 19.6 µM (inactive) | – | > 100 µM (inactive) | – | > 100 µM (inactive) | > 100 µM (inactive) | – | > 100 µM (inactive) | > 100 µM (inactive) | – | –
O=C1OC(CN2CCOCC2)CN1/N=C/c1ccc([N+](=O)[O-])o1 (stereo unspecified) [FURALTADONE] | 24.2 µM (inactive) | 53 µM (inactive) | 63.7 µM (inactive) | 22.7 µM (inactive) | 28.7 µM (inactive) | 35.7 µM (inactive) | 70 µM (inactive) | 31.4 µM (inactive) | 50.9 µM (inactive) | 26 µM (inactive) | 38.5 µM (inactive) | > 100 µM (inactive) | 45.8 µM (inactive) | 61.9 µM (inactive) | 18.5 µM (inactive) | 50.7 µM (inactive) | 19.1 µM (inactive) | – | 32.3 µM (inactive) | 46 µM (inactive)
CC1(C)OC[C@H](C(=N)OCc2ccccc2)O1 | > 100 µM (inactive) | > 100 µM (inactive) | > 100 µM (inactive) | > 100 µM (inactive) | > 100 µM (inactive) | > 100 µM (inactive) | > 100 µM (inactive) | > 100 µM (inactive) | > 100 µM (inactive) | > 100 µM (inactive) | > 100 µM (inactive) | > 100 µM (inactive) | > 100 µM (inactive) | > 100 µM (inactive) | > 100 µM (inactive) | > 100 µM (inactive) | > 100 µM (inactive) | > 100 µM (inactive) | > 100 µM (inactive) | –
